# Results from PMC6713165, “Identification of 1H-pyrazolo[3,4-b]pyridine derivatives as potent ALK-L1196M inhibitors” (Journal of Enzyme Inhibition and Medicinal Chemistry, 2019).
# Values joined by “and” are separate entries in the source; they are usually repeats but may differ in a detail not shown here. Identical values can stand only once. Like-named read-outs stand apart in the source and are kept apart here.
# Tests used:
# H2228 (EML4-ALK) cells = experiment: Anti-proliferation assay (CTG), H2228; format: cell-based; conditions: Homo sapiens, NCI-H2228, 72 h, mean ± SD of three independent experiments
# Description: (§1) ALK wt-TEL, ALK L1196M-TEL transformed Ba/F3 and H2228 cell lines were cultured in RPMI1640 (Welgene, # LM011-01). […] Parental Ba/F3 cells were cultured in RPMI1640 media supplemented with 10% foetal bovine serum and 1% penicillin/streptomycin solution in the presence of IL-3. The cells were maintained in a humidified atmosphere containing 5% CO2 at 37 °C.
# (§2) Cells (ALK wt-TEL, ALK L1196M-TEL and Parental Ba/F3: 1 × 10^4, H2228: 5 × 10^3) were plated in 96 well tissue culture plates. Each compound was added to each well at 10 dose points of three-fold serial dilution in DMSO. After treatment with each compound for 72 h, CTG assay solution (Promega, # G7572) was added to each well.
# Parental Ba/F3 cells = experiment: Anti-proliferation assay (CTG), parental Ba/F3; format: cell-based; conditions: Mus musculus, BaF3, 72 h, with IL-3, mean ± SD of three independent experiments, read-out: GI50 Ba/F3 cell lines Parental
# Description: as §1, §2
# ALK wt-TEL Ba/F3 cells = experiment: Anti-proliferation assay (CTG), ALK wt-TEL Ba/F3; format: cell-based; conditions: Mus musculus, BaF3
# Description: as §1, §2
# ROS1 = ROS1 (Homo sapiens, UniProt P08922); experiment: Biochemical kinase assay, ROS1
# Description: (§3) Biochemical kinase assay was performed by methods previously reported. Kinase reactions of all test compounds except 10g were carried out at 10 µM ATP. Kinase reaction of 10g was performed at three different concentrations of ATP (10/50/100 µM).
# Caco-2 cells = experiment: Permeability assessment using Caco-2 cells; format: in vitro ADME, human
# Description: (§4) Stock solutions (10 mM) of reference compounds and 10g were diluted to a concentration of 10 µM with the transport buffer (HBSS + 1%BSA) and the test compounds were applied to the apical or basolateral side of the cell monolayer. […] In addition, the efflux ratio of each compound was also determined. Reference compounds and 10g were quantified by LC-MS/MS analysis based on the peak area ratio of analyte/the internal standard.
# [1] = Permeability assessment using Caco-2 cells; format: in vitro ADME, human; conditions: human
# Description: as §4
# [2] = test system: ALK autophosphorylation and STAT3, ERK, PLC-gamma phosphorylation in ALK wt-TEL Ba/F3, ALK L1196M-TEL Ba/F3 and H2228 cell lines; experiment: Western blot of ALK autophosphorylation and downstream signalling; format: cell-based; conditions: in words
# Description: Cells were harvested and lysed using IP buffer containing 50 mM HEPES (pH 7.4), 1% Triton X-100, 2 mM EDTA, 150 mM NaCl, 2.5 mM NaF, 5 mM Na3VO4, protease inhibitor cocktail tablet (Roche, # 11–878-580–001). The protein concentration was determined by Bradford assay. Proteins were separated using SDS-PAGE and transferred onto NC membrane. The membranes were blocked using 5% skim milk in TBS-T buffer. The rabbit polyclonal antibody against phospho-ALK (Tyr1604, # 3341), phospho-ERK1/2 (Thr202/Tyr204, # 8544), phospho- PLC-gamma (Tyr783, # 14008), phospho-STAT3 (Tyr705, # 4074) and cleaved caspase3 (# 9661) were purchased from Cell Signalling Technologies, and PARP1/2 (H-250, # sc-7150) and anti-β-actin (# sc-47778) antibody was obtained from Santa Cruz Biotechnology. All primary antibodies were diluted in TBS-T at 1:1000. Each primary antibody was incubated overnight at 4 °C, followed by the secondary antibody treatment for 1 h at room temperature. Secondary antibodies were purchased from genDEPOT. Proteins were detected using ECL substrate, and then exposed to X-ray film.
# [3] = biological target: IRK (insulin receptor kinase) (Homo sapiens, UniProt P06213); experiment: Biochemical kinase assay, IRK
# Sequence of IRK (insulin receptor kinase) (P06213 28-1382): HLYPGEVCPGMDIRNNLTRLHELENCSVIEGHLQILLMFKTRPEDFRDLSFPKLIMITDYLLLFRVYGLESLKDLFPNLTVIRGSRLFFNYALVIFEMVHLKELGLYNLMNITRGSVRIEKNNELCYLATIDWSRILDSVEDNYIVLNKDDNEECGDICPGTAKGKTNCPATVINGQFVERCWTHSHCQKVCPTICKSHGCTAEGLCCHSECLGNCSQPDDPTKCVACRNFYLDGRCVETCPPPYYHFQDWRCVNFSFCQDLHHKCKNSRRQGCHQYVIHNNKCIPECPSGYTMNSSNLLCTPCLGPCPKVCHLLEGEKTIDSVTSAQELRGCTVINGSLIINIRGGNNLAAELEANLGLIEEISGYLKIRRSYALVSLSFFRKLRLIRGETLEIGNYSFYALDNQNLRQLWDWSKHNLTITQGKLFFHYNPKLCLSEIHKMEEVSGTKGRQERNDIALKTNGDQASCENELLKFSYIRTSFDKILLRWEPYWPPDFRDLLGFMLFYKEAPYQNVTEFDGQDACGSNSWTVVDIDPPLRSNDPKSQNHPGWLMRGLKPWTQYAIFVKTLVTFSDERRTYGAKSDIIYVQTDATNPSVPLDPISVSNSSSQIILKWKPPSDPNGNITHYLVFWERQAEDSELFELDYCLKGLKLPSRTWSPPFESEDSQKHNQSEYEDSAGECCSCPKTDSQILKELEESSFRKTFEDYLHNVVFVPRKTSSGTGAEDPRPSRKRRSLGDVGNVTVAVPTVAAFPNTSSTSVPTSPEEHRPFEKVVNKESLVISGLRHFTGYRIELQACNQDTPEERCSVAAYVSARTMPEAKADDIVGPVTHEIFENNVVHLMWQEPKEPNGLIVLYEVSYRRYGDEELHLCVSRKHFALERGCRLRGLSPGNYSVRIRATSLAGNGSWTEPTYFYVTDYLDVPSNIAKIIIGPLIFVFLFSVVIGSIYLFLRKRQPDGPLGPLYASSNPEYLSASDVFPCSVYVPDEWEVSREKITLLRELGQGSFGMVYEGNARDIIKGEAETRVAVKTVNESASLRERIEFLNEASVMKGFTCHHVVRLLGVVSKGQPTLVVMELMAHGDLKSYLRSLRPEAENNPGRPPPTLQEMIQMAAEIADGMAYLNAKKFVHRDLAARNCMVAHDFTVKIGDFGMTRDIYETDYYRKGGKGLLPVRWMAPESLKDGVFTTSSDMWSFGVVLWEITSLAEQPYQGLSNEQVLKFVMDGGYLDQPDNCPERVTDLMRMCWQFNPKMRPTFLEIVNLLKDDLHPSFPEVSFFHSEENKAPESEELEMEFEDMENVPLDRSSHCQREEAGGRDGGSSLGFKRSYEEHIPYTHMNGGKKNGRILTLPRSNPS
# Description: as §3
# H2228 cells [4] = experiment: Apoptosis analysis (annexin V-FITC/PI, FACS), H2228; format: cell-based; conditions: H2228, 48 h, in words
# Description: (§5) After 24–48 h following compound treatment, cells were harvested and stained with annexin V (1:500 diluted in annexin V buffer) for 30 min and PI (1:200) solution for 30 min. 1 × 10^6 cells were analysed using flow cytometric analysis. For the cell cycle arrest analysis, cells were harvested by trypsinisation and fixed with 70% ethanol overnight at −20 °C. The next day, cells were harvested and washed with cold DPBS at 500 × g.
# ALK-L1196M = ALK-L1196M (Homo sapiens, UniProt Q9UM73, L1196M); experiment: Radiometric biochemical kinase assay, ALK-L1196M; conditions: radiometric kinase assay, 10 µM ATP
# Sequence of ALK-L1196M (Q9UM73 19-1620 L1196M): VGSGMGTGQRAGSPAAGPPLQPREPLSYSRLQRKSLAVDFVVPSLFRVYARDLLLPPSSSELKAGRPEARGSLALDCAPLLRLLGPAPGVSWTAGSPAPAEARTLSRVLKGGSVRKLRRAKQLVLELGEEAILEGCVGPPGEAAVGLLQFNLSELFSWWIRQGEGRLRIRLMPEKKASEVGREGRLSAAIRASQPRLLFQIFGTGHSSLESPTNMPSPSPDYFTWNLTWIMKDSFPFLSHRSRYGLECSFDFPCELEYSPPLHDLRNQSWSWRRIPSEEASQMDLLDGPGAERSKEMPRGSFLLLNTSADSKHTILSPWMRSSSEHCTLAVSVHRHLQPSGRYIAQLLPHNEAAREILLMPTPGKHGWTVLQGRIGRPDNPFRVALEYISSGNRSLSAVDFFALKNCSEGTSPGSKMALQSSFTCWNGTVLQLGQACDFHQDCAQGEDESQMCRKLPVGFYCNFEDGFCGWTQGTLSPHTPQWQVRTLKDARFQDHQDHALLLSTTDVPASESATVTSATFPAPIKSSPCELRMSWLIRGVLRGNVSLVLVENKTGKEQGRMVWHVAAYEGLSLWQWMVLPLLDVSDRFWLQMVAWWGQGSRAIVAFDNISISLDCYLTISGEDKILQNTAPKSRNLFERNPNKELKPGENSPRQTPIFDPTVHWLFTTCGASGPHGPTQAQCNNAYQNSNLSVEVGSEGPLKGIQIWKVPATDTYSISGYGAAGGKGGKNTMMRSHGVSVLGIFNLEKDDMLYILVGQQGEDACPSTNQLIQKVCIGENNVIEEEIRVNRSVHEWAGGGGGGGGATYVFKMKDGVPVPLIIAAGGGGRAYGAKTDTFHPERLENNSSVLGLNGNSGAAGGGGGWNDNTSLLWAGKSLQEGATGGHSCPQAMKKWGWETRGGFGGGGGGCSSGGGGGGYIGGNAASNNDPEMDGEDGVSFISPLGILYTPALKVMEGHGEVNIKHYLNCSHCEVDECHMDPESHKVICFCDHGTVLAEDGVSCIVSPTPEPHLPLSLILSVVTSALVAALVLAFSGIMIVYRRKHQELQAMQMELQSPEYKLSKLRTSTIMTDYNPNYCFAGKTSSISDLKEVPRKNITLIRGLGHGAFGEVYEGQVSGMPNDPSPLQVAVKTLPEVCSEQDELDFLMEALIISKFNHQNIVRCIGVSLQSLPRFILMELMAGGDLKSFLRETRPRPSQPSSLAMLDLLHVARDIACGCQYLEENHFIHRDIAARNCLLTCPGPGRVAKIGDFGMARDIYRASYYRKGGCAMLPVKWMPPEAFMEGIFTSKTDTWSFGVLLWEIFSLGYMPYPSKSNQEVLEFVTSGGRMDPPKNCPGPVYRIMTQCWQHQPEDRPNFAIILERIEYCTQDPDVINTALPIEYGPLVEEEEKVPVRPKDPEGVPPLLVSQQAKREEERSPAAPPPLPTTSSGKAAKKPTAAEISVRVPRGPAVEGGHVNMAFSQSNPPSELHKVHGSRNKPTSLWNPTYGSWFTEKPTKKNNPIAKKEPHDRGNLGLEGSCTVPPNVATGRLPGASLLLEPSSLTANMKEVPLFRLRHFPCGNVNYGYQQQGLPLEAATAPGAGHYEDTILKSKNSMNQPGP
# Description: as §3
# ALK-C1156Y = ALK-C1156Y (Homo sapiens, UniProt Q9UM73, C1156Y); experiment: Radiometric biochemical kinase assay, ALK-C1156Y
# Sequence of ALK-C1156Y (Q9UM73 19-1620 C1156Y): as the sequence (Q9UM73 19-1620 L1196M) above, with C1138Y, M1178L counted along it
# Description: as §3
# [5] = test system: ALK L1196M-TEL Ba/F3 cells; experiment: Apoptosis analysis (annexin V-FITC/PI, FACS), ALK L1196M-TEL Ba/F3; format: cell-based
# Description: as §5
# ALK-wt = ALK-wt (Homo sapiens, UniProt Q9UM73); experiment: Radiometric biochemical kinase assay, ALK-wt
# Sequence of ALK-wt (Q9UM73 19-1620): as the sequence (Q9UM73 19-1620 L1196M) above, with M1178L counted along it
# Description: as §3
# ALK-T1151-L1152insT = ALK-T1151-L1152insT (Homo sapiens, UniProt Q9UM73, INS1151T); experiment: Radiometric biochemical kinase assay, ALK-T1151-L1152insT
# Sequence of ALK-T1151-L1152insT (Q9UM73 with tags, fused parts or gaps INS1151T limits assumed): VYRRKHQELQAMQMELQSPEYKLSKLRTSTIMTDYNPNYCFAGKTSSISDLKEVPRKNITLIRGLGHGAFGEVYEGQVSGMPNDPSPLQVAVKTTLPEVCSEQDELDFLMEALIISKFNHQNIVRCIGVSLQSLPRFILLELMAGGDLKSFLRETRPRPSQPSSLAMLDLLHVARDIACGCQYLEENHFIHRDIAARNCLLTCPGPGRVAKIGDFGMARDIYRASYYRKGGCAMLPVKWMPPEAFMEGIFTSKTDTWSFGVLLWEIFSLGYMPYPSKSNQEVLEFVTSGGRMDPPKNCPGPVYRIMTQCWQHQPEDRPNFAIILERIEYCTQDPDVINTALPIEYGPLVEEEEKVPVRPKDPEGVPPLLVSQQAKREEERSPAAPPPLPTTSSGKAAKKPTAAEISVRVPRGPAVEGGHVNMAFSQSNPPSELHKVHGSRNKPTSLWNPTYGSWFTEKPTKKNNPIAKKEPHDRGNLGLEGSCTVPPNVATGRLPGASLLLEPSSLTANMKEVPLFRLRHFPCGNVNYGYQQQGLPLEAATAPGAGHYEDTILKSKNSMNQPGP
# Description: as §3
# H2228 cells [6] = experiment: Cell cycle arrest analysis (PI, FACS), H2228; format: cell-based; conditions: H2228, 1 µM, 24 h, in words
# Description: as §5, with “g. The cells were suspended in RNase/PI solution (Cell Signalling Technologies, # 4087).” for “g.”
smiles,measurement,setting,value
"CN1CCN(c2ccc(C(=O)Nc3n[nH]c4ncc(S(=O)(=O)c5cccc(F)c5)cc34)cc2)CC1 [10g, N-(5-((3-Fluorophenyl)sulfonyl)-1H-pyrazolo[3,4-b]pyridin-3-yl)-4–(4-methylpiperazin-1-yl)benzamide]",GI50,H2228 (EML4-ALK) cells,219 ± 50 nM
same,GI50,Parental Ba/F3 cells,3500 ± 1130 nM
same,GI50,"ALK wt-TEL Ba/F3 cells; 72 h, CTG, mean ± SD of three independent experiments, read-out: GI50 Ba/F3 cell lines ALK wt-TEL",205 ± 60 nM
same,GI50,"ALK wt-TEL Ba/F3 cells; stated in text for both ALK-driven Ba/F3 lines (ALK wt-TEL and ALK L1196M-TEL), read-out: GI50 ALK-driven Ba/F3 cells",< 205 nM
same,IC50,ROS1,< 1 nM
same,Rank Papp,Caco-2 cells; Caco-2 permeability class from Papp (A to B),moderate
same,Rank P-gp,Caco-2 cells; P-gp substrate status from efflux ratio,not a substrate
same,"Papp A→B at 120 min, 10 µM","[1]; Caco-2, Caco-2, 10 µM, 120 min, 37 °C, HBSS + 1%BSA, read-out: Mean Papp A to B",2.56 ×10⁻⁶ cm/s
same,"recovery at 120 min, 10 µM","[1]; Caco-2, Caco-2, 10 µM, 120 min, read-out: Mean recovery % A to B",74.2%
same,"recovery at 120 min, 10 µM","[1]; Caco-2, Caco-2, 10 µM, 120 min, read-out: Mean recovery % B to A",92.3%
same,"Papp A→B at 120 min, 10 µM","[1]; Caco-2, Caco-2 permeability class from Papp (A to B), read-out: Rank Papp",2.5 to 10 ×10⁻⁶ cm/s
same,"efflux ratio at 120 min, 10 µM","[1]; Caco-2, 10 µM, 120 min",1.85
same,"Papp B→A at 120 min, 10 µM","[1]; Caco-2, 10 µM, 120 min, 37 °C, HBSS + 1%BSA",4.74 ×10⁻⁶ cm/s
same,ALK autophosphorylation (western blot),"[2]; 1 and 10 µM, 2 h, ALK wt-TEL Ba/F3, ALK L1196M-TEL Ba/F3 and H2228 cell lines",effectively attenuates
same,"phosphorylation levels of STAT3, ERK and PLC-gamma (western blot)","[2]; 2 h, dose-dependent",moderately suppressed
same,inhibition of ALK autophosphorylation compared with crizotinib,[2]; ALK L1196M-TEL Ba/F3 cells,more effective than crizotinib
same,IC50,[3],404 nM
same,apoptosis induction (FACS),H2228 cells [4],induces apoptosis in H2228 cells in a dose dependent fashion
same,IC50,ALK-L1196M,< 0.5 nM
same,IC50,ALK-C1156Y,1.81 nM
same,number of apoptotic cells (FACS),"[5]; ALK L1196M-TEL Ba/F3, 24 h, in words",increases the number of apoptotic cells in a dose-dependent manner
same,apoptosis induction compared with crizotinib,"[5]; ALK L1196M-TEL Ba/F3, in words",more effectively than does crizotinib
same,change in IC50 against ALK-wt on 10-fold increase in ATP concentration,ALK-wt; 10 vs 100 µM ATP,50 fold
same,IC50,"ALK-wt; IC50 ALK-wt [ATP](50 μM), 50 μM ATP",17.3 nM
same,IC50,"ALK-wt; IC50 ALK-wt [ATP](100 μM), 100 μM ATP",24 nM and 24.9 nM
same,IC50,"ALK-wt; radiometric kinase assay, 10 µM ATP, read-out: IC50 ALK-wt",< 0.5 nM
same,IC50,ALK-T1151-L1152insT,6.19 nM
same,cell cycle arrest,H2228 cells [6],significant enhancement of G1-S arrest
